Data on one compound can be found in article PMC10906223 (JCI Insight, 2024).

By half-life is commonly meant how long it takes for the measured level to halve.

Values joined by “and” are separate entries in the source; they are usually repeats but may differ in a detail not shown here. Equal values may be shown once.

Series [1] concerns human donor dispersed islet cells. The experiment in a line: Somatostatin secretion from non-diabetic human donor dispersed islet cells. Type of series: cell-based. The method, then:
Pancreata of nondiabetic C57BL/6J mice were digested using collagenase P (Roche Diagnostics, catalog 11213873001), and islets were manually picked up using a stereomicroscope (ZEISS Stemi 305). […] Isolated mouse islets or provided human islets were dispersed as described ([28]). Briefly, 100–120 islets were washed 2 times using modified HBSS, then dispersed in 600 μL Accutase (Innovative Cell Technologies, catalog AT-104) by gently pipetting up and down for 7 minutes at 37°C. […] Following refreshing of KRBH, cells were dispensed in 8 microfuge tubes (2,000 cells/tube) and treated with WCDD301, preclustered Ephrin-A5 Fc, or preclustered Fc in the presence or absence of the competitive inhibitor of EphA4 receptor, rhyncophylline ([60]) (MilliporeSigma, catalog SML2345). In the presence or absence of these effectors, secretion assay was performed sequentially as shown in Supplemental Table 5. […] Preclustering of Ephrin-A5 Fc was done by mixing Ephrin-A5 Fc or Fc alone (BioLegend, catalog 790102) with anti-Fc antibody (Invitrogen, catalog A16086) (1:10 molar ratio) 20 minutes before treatment ([62]). […] Shedding of cleaved EphA4 was measured from the cell culture medium. Experiments were performed by dispersion of 200 islets, and EphA4 levels in media were measured by EphA4 ELISA (ABclonal, catalog RK06572).
(§1) The Integrated Islet Distribution Program provided us human donor islets with their characteristics (Supplemental Table 6). Islets were centrifuged at 500g for 3 minutes, resuspended in CMRL 1066 medium (Gibco, catalog 1150-037) containing 11 mM glucose, and rested in an incubator overnight.
(§2) For the hormone secretion assay, islets or dispersed islet cells were adapted in KRBH buffer containing 11 mM glucose for 1 hour. Then, after 2 washes in HBSS containing 11 mM glucose, islets or cells were treated in the following sequential order in the presence or absence of WCDD301: incubation in KRBH (1 mM glucose, 30 minutes) followed by medium collection, incubation in KRBH (11 mM glucose, 30 minutes) followed by medium collection.

Series [2] deals with isolated islets of donors with T1D. The experiment in a line: Glucagon secretion from isolated islets of donors with T1D. It counts as cell-based, human. Particulars: for Secretion of glucagon: isolated islets, T1D donors, one value per donor, Figure 2G. The method, then: as §1, §2
The subject of series [3] is human dispersed islet cells. The experiment in a line: Immunofluorescence: F-actin intensity in glucagon+ human dispersed islet cells.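 As to F-actin intensity: ImageJ intensity within ROI drawn around each glucagon+ cell.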 It counts as cell-based. The method, then: (§3) Coverslips were treated with WCDD301, preclustered Ephrin-A5 Fc, or preclustered Fc in the following sequential order: KRBH (11 mM glucose, 30 minutes), KRBH (1 mM glucose, 60 minutes), KRBH (1 mM glucose, 30 minutes), and KRBH (11 mM glucose, 60 minutes). After treatment, coverslips were washed once in PBS, fixed in 2% paraformaldehyde in PBS (30 minutes), and again washed in PBS. […] Following wash in PBS, coverslips were incubated in a mixture of Alexa Fluor 555 Phalloidin (Cell Signaling Technology, catalog 8953) and secondary antibodies (goat anti-rabbit Alexa Fluor 488, catalog A-21094, 1:1,000, Molecular Probes; and goat anti-mouse Alexa Fluor 633, catalog A21052, 1:1,000, Life Technologies) for 1 hour at RT. Both primary and secondary antibodies were diluted in blocking buffer containing 0.05% Tween 20. Coverslips were washed using PBS and counterstained by using DAPI (1:1,000) for 10 minutes. Following 2 washes in PBS, coverslips were mounted on glass slides using ProLong Glass Antifade Mountant (Invitrogen, catalog P36980). Images were captured using the Zeiss LSM880 microscope with a Plan-Apochromat 63× 1.4 NA objective lens by setting dual-band dichroic/filter for 405, 488, 561, and 633 nm laser excitation. For each slide, 25–30 fields of view were scanned, and in each field of view, 3–5 cells were imaged. […] Values of intensity were compared among groups using 1-way ANOVA, α = 0.05.

For series [4], the system named is human dispersed islet cells. Nature of the series: Immunofluorescence: EphA4 intensity in glucagon+ human dispersed islet cells.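 As to EphA4 intensity: ImageJ intensity within ROI drawn around each glucagon+ cell.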 Type of series: cell-based. The procedure: as §3
Series [5] deals with diabetic NOD mice. The experiment in a line: Hematoxylin-Eosin staining of pancreatic islets of NOD mice. It counts as in vivo, mouse. The following applies: WCDD301-treated diabetic NOD mice.
The nature of series [6]: Plasma stability assay, CD-1 mouse plasma. It counts as in vitro ADME. The following applies: for Ln (% Remaining): mouse plasma, 37°C, Figure 5B. The method, then: Pooled frozen plasma of CD-1 mice (n = 20; catalog MSE00PLK2M2N, Beijing Vital River Laboratory Animal Technology) or humans (n = 6, catalog […]2P2N, Bioreclamation IVT), equal numbers of males and females, was thawed in a 37°C water bath, and residual clots were removed by centrifugation (500g for 5 minutes). Plasma (98 μL) was aliquoted in each well of 96-well reaction plates using an Apricot automation workstation. WCDD301 (100 μM) or propantheline bromide (100 μM, as a positive control) was added (2 μL/well) to sets of wells assigned to blank or time points (T0, T10, T30, T60, and T120 minutes) and incubated at 37°C. At each time point, the reaction was stopped by adding stop solution (500 μL; a mixture of 200 ng/mL of tolbutamide and labetalol in acetonitrile), mixed thoroughly, sealed, shaken (20 minutes), and centrifuged (1,750g, 4°C, 20 minutes). A total of 150 μL of the supernatant from each well of the reaction plate was transferred to its corresponding bioanalysis plate for LC-MS/MS analysis. The remaining level (%) of the WCDD301 was calculated using the following equation: remaining (%) = (PAR at each time point/PAR at T0) × 100. PAR stands for the peak area ratio of the WCDD301 versus internal standard.

With `CC(=O)OCC(N)(COC(C)=O)COC(C)=O` [WCDD301, 2-(acetoxymethyl)-2-aminopropane-1,3-diyl diacetate], the “Effect on somatostatin secretion” value in series [1] (1, 3 or 6 hours, Supplemental Figure 4A-C) is on record as “no effect on somatostatin secretion”. Also, the “Somatostatin secretion (Supplemental Figure 4D; quantity not given)” value in series [1] (WCDD301) is 1740.7 and 1280.5 and 1500.0. Besides, the “Effect on glucagon secretion” value in series [2] (islets from donors with long-standing T1D) is listed as “reduced glucagon secretion”. Further, the Secretion of glucagon was 39.575 and 41.23 in series [2] (1 mM glucose); 36.8 and 30.22 in series [2] (11 mM glucose). For the same compound, in series [3] (human cells, individual values, Figure 3E), the F-actin intensity was 9.0 and 7.2 and 6.5 and 10.4 and 8.2 and 4.2 and 10.3 and 9.6 and 6.8. Besides, in series [3] (α cells, human donors), the “Effect on intracellular F-actin” value is given as “increased intracellular F-actin density”. In series [4] (human cells, individual values, Figure 3G), the EphA4 intensity was 58.8 and 45.8 and 8.0 and 57.8 and 32.5 and 5.4 and 45.9 and 14.9 and 11.0. For the same compound, the “Effect on intracellular EphA4” value in series [4] (α cells, human donors) is listed as “increased intracellular EphA4 intensity”. Besides, the “Mononuclear cell infiltration and edema (Hematoxylin-Eosin)” value in series [5] was “no mononuclear infiltration or apparent edema”. The half-life at 2 µM in series [6] (both sexes, CD-1, mouse, plasma) worked out at 1.75 h. The results for the “Ln (% Remaining)” value in series [6] (10 min), in series [6] (60 min) and in series [6] (120 min) were -0.4, -0.55 and -0.94, respectively.
